Bounds are passed on as bounds.

For 34 compounds, IC50 results are on record in patent US9932340B2, “Substituted indoles” (AbbVie Inc., priority 2014, dated 2018).

SUV420H1 enzyme, sequence (Q4FZB7 whole entry): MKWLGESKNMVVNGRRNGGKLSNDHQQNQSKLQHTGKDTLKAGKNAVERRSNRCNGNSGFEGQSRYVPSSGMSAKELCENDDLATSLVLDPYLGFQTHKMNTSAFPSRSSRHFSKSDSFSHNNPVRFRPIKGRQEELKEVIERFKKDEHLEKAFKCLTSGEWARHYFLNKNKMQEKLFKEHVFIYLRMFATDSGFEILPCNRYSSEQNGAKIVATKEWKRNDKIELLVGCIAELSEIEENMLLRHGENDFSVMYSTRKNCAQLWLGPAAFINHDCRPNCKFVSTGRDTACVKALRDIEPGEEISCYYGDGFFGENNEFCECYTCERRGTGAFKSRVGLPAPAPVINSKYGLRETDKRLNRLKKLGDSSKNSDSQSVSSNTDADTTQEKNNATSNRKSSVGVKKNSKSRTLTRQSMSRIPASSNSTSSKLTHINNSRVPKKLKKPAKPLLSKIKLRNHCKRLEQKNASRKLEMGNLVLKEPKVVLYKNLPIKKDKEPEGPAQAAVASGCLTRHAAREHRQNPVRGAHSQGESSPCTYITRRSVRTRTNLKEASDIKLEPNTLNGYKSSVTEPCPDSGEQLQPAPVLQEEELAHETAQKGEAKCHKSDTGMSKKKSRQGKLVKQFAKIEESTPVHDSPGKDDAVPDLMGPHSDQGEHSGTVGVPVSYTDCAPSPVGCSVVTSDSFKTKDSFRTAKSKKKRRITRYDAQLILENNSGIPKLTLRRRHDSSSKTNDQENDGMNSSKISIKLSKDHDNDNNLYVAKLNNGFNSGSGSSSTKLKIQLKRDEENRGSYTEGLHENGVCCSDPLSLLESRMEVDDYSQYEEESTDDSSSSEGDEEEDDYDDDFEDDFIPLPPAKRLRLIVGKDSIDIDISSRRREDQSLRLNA

For the experiment, the target named is SUV420H1 enzyme (Homo sapiens, UniProt Q4FZB7). Nature of the experiment: TR-FRET SAH SUV420H1 enzyme inhibition assay. The following applies: Histone Peptide H4(8-30)me1 and SAM, overnight at room temp, TR-FRET detection of SAH, read-out: TR-FRET SAH_SUV420H1 IC50. It is filed as biochemical. In short, it runs like this:
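SUV420H1 (90 nM) preincubated 30 min with compound (3-fold dilutions, 50 to 0.00075 μM), then H4(8-30)me1 peptide 5 nM and SAM 4 nM added, overnight at room temp. SAH product detected by TR-FRET with Tb anti-SAH antibody and Oregon Green-SAH in RIPA buffer, 4 h; IC50 from Hill fit, asymptotes fixed 0-100%.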
For orientation: Time-resolved FRET reads energy transfer from a long-lived donor to a nearby acceptor.
As for `Cc1noc(C)c1C(=O)NCc1cc2cc(-c3cccc(C#N)c3)cc(Cn3cnc4c(N)ncnc43)c2[nH]1` [Example 172, N-({7-[(6-amino-9H-purin-9-yl)methyl]-5-(3-cyanophenyl)-H-indol-2-yl}methyl)-3,5-dimethyl-1,2-oxazole-4-carboxamide], the IC50 was found to be 66.1 nM.

Take `N#Cc1ccc(C(=O)NCc2cc3cc(C4=CCOCC4)cc(Cn4cnc5c(N)ncnc54)c3[nH]2)c(F)c1` [Example 285, N-({7-[(6-amino-9H-purin-9-yl)methyl]-5-(3,6-dihydro-2H-pyran-4-yl)-1H-indol-2-yl}methyl)-4-cyano-2-fluorobenzamide]: the concentration for half-maximal inhibition (IC50) is 57.9 nM.

For `CC(C)(C)OC(=O)N1CCC[C@H]1C(=O)NCc1cc2cc(Cl)cc(Cn3cnc4c(N)ncnc43)c2[nH]1` [Example 123, tert-butyl (2S)-2-[({7-[(6-amino-9H-purin-9-yl)methyl]-5-chloro-1H-indol-2-yl}methyl)carbamoyl]pyrrolidine-1-carboxylate], the IC50 turned out to be 44900 nM.

For `Nc1ncnc2c1ncn2Cc1cc(Cl)cc2cc(CNC(=O)C3CCCO3)[nH]c12` (stereo not shown) [Example 113, N-({7-[(6-amino-9H-purin-9-yl)methyl]-5-chloro-1H-indol-2-yl}methyl)tetrahydrofuran-2-carboxamide], the IC50 is more than 50000 nM.

Regarding “4-(aminomethyl)-N-({7-[(6-amino-9H-purin-9-yl)methyl]-5-(4,4-difluorocyclohexyl)-1H-indol-2-yl}methyl)-2-methylbenzamide [Example 301]”, the IC50 was determined as 750 nM.

With `Nc1ncnc2c1ncn2Cc1cc(Cl)cc2cc(CO)[nH]c12` [Example 7, {7-[(6-amino-9H-purin-9-yl)methyl]-5-chloro-1H-indol-2-yl}methanol], the IC50 was determined as 22200 nM.

Consider `CNc1ccccc1C(=O)NCc1cc2cc(Cl)cc(Cn3cnc4c(N)ncnc43)c2[nH]1` [Example 275, N-({7-[(6-amino-9H-purin-9-yl)methyl]-5-chloro-1H-indol-2-yl}methyl)-2-(methylamino)benzamide], for which the IC50 was determined as 13200 nM.

As for `CC(C)c1noc2ncc(C(=O)NCc3cc4cc(Cl)cc(Cn5cnc6c(N)ncnc65)c4[nH]3)cc12` [Example 370, N-({7-[(6-amino-9H-purin-9-yl)methyl]-5-chloro-1H-indol-2-yl}methyl)-3-(propan-2-yl)[1,2]oxazolo[5,4-b]pyridine-5-carboxamide], the IC50 is 1690 nM.

Consider `Cc1cccc(C)c1CNCc1cc2cc(Cl)cc(Cn3cnc4c(N)ncnc43)c2[nH]1` [Example 290, 9-[(5-chloro-2-{[(2,6-dimethylbenzyl)amino]methyl}-1H-indol-7-yl)methyl]-9H-purin-6-amine], for which the IC50 came out at 2800 nM.

Consider `Cc1cccc(-c2cc(Cn3cnc4c(N)ncnc43)c3[nH]c(CN)cc3c2)c1` [Example 31, 9-{[2-(aminomethyl)-5-(3-methylphenyl)-1H-indol-7-yl]methyl}-9H-purin-6-amine], for which the IC50 came to 901 nM.

Take `N#Cc1ccc(C(=O)NCc2cc3c(Cl)ccc(Cn4cnc5c(N)ncnc54)c3[nH]2)c(Cl)c1` [Example 282, N-({7-[(6-amino-9H-purin-9-yl)methyl]-4-chloro-1H-indol-2-yl}methyl)-2-chloro-4-cyanobenzamide]: the IC50 was 72.3 nM.

On to `Nc1ncnc2c1ncn2Cc1cc(Cl)cc2cc(CNC(=O)C3CCC3)[nH]c12` [Example 111, N-({7-[(6-amino-9H-purin-9-yl)methyl]-5-chloro-1H-indol-2-yl}methyl)cyclobutanecarboxamide], for which the IC50 came out at 8800 nM.

Turning to `CCNc1ccccc1C(=O)NCc1cc2cc(Cl)cc(Cn3cnc4c(N)ncnc43)c2[nH]1` [Example 310, N-({7-[(6-amino-9H-purin-9-yl)methyl]-5-chloro-1H-indol-2-yl}methyl)-2-(ethylamino)benzamide], the IC50 worked out at 13200 nM.

With `CC(=O)N1CC=C(c2cc(Cn3cnc4c(N)ncnc43)c3[nH]c(CNC(=O)c4ccc(C#N)cc4C)cc3c2)CC1` [Example 307, N-({5-(1-acetyl-1,2,3,6-tetrahydropyridin-4-yl)-7-[(6-amino-9H-purin-9-yl)methyl]-1H-indol-2-yl}methyl)-4-cyano-2-methylbenzamide], the IC50 amounted to 29.7 nM.

As to `Nc1ncnc2c1ncn2Cc1cc(Cl)cc2cc(CNC(=O)c3cn[nH]c3)[nH]c12` [Example 143, N-({7-[(6-amino-9H-purin-9-yl)methyl]-5-chloro-1H-indol-2-yl}methyl)-1H-pyrazole-4-carboxamide], the IC50 worked out at 24000 nM.

On to `COc1cc(C#N)ccc1CNCc1cc2cc(Cl)cc(Cn3cnc4c(N)ncnc43)c2[nH]1` [Example 311, 4-{[({7-[(6-amino-9H-purin-9-yl)methyl]-5-chloro-1H-indol-2-yl}methyl)amino]methyl}-3-methoxybenzonitrile], for which the IC50 stood at 3240 nM.

On to `COc1cccc(CCC(=O)NCc2cc3cc(Cl)cc(Cn4cnc5c(N)ncnc54)c3[nH]2)c1` [Example 316, N-({7-[(6-amino-9H-purin-9-yl)methyl]-5-chloro-1H-indol-2-yl}methyl)-3-(3-methoxyphenyl)propanamide], for which the IC50 was 13000 nM.

Consider `Nc1ncnc2c1ncn2Cc1cc(Cl)cc2cc(CNC(=O)c3ccc4sccc4c3)[nH]c12` [Example 354, N-({7-[(6-amino-9H-purin-9-yl)methyl]-5-chloro-1H-indol-2-yl}methyl)-1-benzothiophene-5-carboxamide], for which the IC50 amounted to 5960 nM.

On to `Cn1ccc2ccc(C(=O)NCc3cc4cc(Cl)cc(Cn5cnc6c(N)ncnc65)c4[nH]3)cc21` [Example 365], for which the IC50 worked out at 1880 nM.

Turning to `Cc1cc(C(=O)NCc2cc3cc(Cl)cc(Cn4cnc5c(N)ncnc54)c3[nH]2)c(C)nn1` [Example 234, N-({7-[(6-amino-9H-purin-9-yl)methyl]-5-chloro-1H-indol-2-yl}methyl)-3,6-dimethylpyridazine-4-carboxamide], the IC50 was 60.6 nM.

Regarding `Nc1ncnc2c1ncn2Cc1cc(Cl)cc2cc(CNC(=O)[C@H]3CCC(=O)N3)[nH]c12` [Example 118, (2R)—N-({7-[(6-amino-9H-purin-9-yl)methyl]-5-chloro-1H-indol-2-yl}methyl)-5-oxopyrrolidine-2-carboxamide], the IC50 stood at 18400 nM.

For the compound `COc1ccccc1-c1cc(Cn2cnc3c(N)ncnc32)c2[nH]c(CN)cc2c1` [Example 36, 9-{[2-(aminomethyl)-5-(2-methoxyphenyl)-1H-indol-7-yl]methyl}-9H-purin-6-amine], the IC50 was 2410 nM.

With `Nc1ncnc2c1ncn2Cc1cc(Cl)cc2cc(CNCc3cccc(OCCN4CCCCC4)c3)[nH]c12` [Example 325, 9-({5-chloro-2-[({3-[2-(piperidin-1-yl)ethoxy]benzyl}amino)methyl]-1H-indol-7-yl}methyl)-9H-purin-6-amine], the IC50 amounted to 3120 nM.

Regarding `Nc1ncnc2c1ncn2Cc1cc(Cl)cc2cc(CNCc3c(F)cccc3F)[nH]c12` [Example 219, 9-[(5-chloro-2-{[(2,6-difluorobenzyl)amino]methyl}-1H-indol-7-yl)methyl]-9H-purin-6-amine], the IC50 was 3130 nM.

As for `Cc1noc2ncc(C(=O)NCc3cc4cc(Cl)cc(Cn5cnc6c(N)ncnc65)c4[nH]3)cc12` [Example 351, N-({7-[(6-amino-9H-purin-9-yl)methyl]-5-chloro-1H-indol-2-yl}methyl)-3-methyl[1,2]oxazolo[5,4-b]pyridine-5-carboxamide], the IC50 was determined as 393 nM.

With `NCc1cc2cccc(Cn3cnc4c(N)ncnc43)c2[nH]1` [Example 8, 9-{[2-(aminomethyl)-1H-indol-7-yl]methyl}-9H-purin-6-amine], the IC50 came to 2820 nM.

Regarding `COc1cscc1C(=O)NCc1cc2cc(Cl)cc(Cn3cnc4c(N)ncnc43)c2[nH]1` [Example 158, N-({7-[(6-amino-9H-purin-9-yl)methyl]-5-chloro-1H-indol-2-yl}methyl)-4-methoxythiophene-3-carboxamide], the IC50 is 4750 nM.

With `CS(=O)(=O)c1cc(CNCc2cc3cc(Cl)cc(Cn4cnc5c(N)ncnc54)c3[nH]2)ccc1F` [Example 263, 9-{[5-chloro-2-({[4-fluoro-3-(methylsulfonyl)benzyl]amino}methyl)-1H-indol-7-yl]methyl}-9H-purin-6-amine], the half-maximal inhibitory concentration (IC50) was determined as 1750 nM.

Regarding `Nc1ncnc2c1ncn2Cc1cc(Cl)cc2cc(CNC(=O)c3ccc4[nH]nnc4c3)[nH]c12` [Example 332, N-({7-[(6-amino-9H-purin-9-yl)methyl]-5-chloro-1H-indol-2-yl}methyl)-1H-benzotriazole-5-carboxamide], the IC50 turned out to be 2020 nM.

For `COc1cccc(-c2cc(Cn3cnc4c(N)ncnc43)c3[nH]c(CNC(=O)c4c(C)noc4C)cc3c2)c1` [Example 169, N-({7-[(6-amino-9H-purin-9-yl)methyl]-5-(3-methoxyphenyl)-1H-indol-2-yl}methyl)-3,5-dimethyl-1,2-oxazole-4-carboxamide], the IC50 was 80.1 nM.

With `Nc1ncnc2c1ncn2Cc1cc(Cl)cc2cc(CNC(=O)c3ccccc3)[nH]c12` [Example 220, N-({7-[(6-amino-9H-purin-9-yl)methyl]-5-chloro-1H-indol-2-yl}methyl)benzamide], the IC50 amounted to 4050 nM.

Regarding `CS(=O)(=O)c1ccc(C(=O)NCc2cc3cc(Cl)cc(Cn4cnc5c(N)ncnc54)c3[nH]2)c(Cl)c1` [Example 266, N-({7-[(6-amino-9H-purin-9-yl)methyl]-5-chloro-1H-indol-2-yl}methyl)-2-chloro-4-(methylsulfonyl)benzamide], the IC50 was 911 nM.

For `CS(=O)(=O)Nc1ccc(-c2cc(Cn3cnc4c(N)ncnc43)c3[nH]c(CN)cc3c2)cc1` [Example 41, N-(4-{2-(aminomethyl)-7-[(6-amino-9H-purin-9-yl)methyl]-1H-indol-5-yl}phenyl)methanesulfonamide], the IC50 was 236 nM.

Consider `COc1cccc(C)c1C(=O)NCc1cc2cc(Cl)cc(Cn3cnc4c(N)ncnc43)c2[nH]1` [Example 299, N-({7-[(6-amino-9H-purin-9-yl)methyl]-5-chloro-1H-indol-2-yl}methyl)-2-methoxy-6-methylbenzamide], for which the IC50 worked out at 1840 nM.

Broadly, the IC50 is the concentration at which inhibition is half-maximal.
